The conditions of series [1]: 4 h, pH 7.4.
Method: Solubility Test Procedure I:
(§1) A 50 mmol stock solution for each test compound was prepared using dimethyl sulfoxide. From this stock solution, a working solution of 1 mmol was prepared by diluting with dimethyl sulfoxide. The working solution of 1 mmol was then serially diluted using dimethyl sulfoxide. Then, 5-20 μl of stock solution is added to 1 ml of phosphate buffer solution of pH 7.4. The solution was then stirred for 4 h at 25° C. in order to reach equilibrium. After this incubation period, the solution was filtered using 0.45 micron PVDF injector filters to remove the insoluble fraction of the compound and subsequently filtrate is taken for quantification using UV Detector. The concentration of test sample was calculated using the linearity/calibration curve.
A short description of series [2]: physchem. As to conditions: 25 °C, pH 7.4, aqueous buffer, kinetic from dmso stock.
Method: Solubility Test Procedure I:
as §1
Series [3] is described as follows: Kinetic solubility (Solubility Test Procedure I). The following applies: for Increase in solubility compare to fulvestrant (Fold): kinetic aqueous solubility at pH 7.4; for solubility at 4 h: phosphate buffer, 25 °C, pH 7.4, aqueous buffer, kinetic from dmso stock.
Method: Solubility Test Procedure I:
as §1
A short description of series [4]: physchem. As to conditions: thermodynamic from solid.
Method: Solubility Test Procedure II:
(§2) Stock solutions of the test compounds and fulvestrant were prepared in phosphate buffered saline (PBS) pH 7.4 and sodium acetate buffer pH 4.0, which was incubated for 24 h at room temperature with constant mixing at 100 rpm in the same tube. After incubation, the tubes were centrifuged for 20 min. at 10000 rpm. Later 200 μL of sample was taken and filtered. The filtrate was analysed by HPLC-UV against 0.0012 mg/ml, 0.037 mg/mL, 0.3 mg/ml, 0.1 mg/ml and 1 mg/ml of dimethylsulfoxide (DMSO) stock.
(§3) Solubility (μg/ml)=[Peak area of sample/Peak area of standard]×Concentration of standard % Aqueous solubility: [Test solubility (μg/ml)/incubation concentration (μg/ml)]×100
Series [5] can be described thus: Thermodynamic solubility (Solubility Test Procedure II). As to conditions: sodium acetate buffer pH 4.0; 24 h room temperature; test compound concentration 1 mg/mL; hydrochloride.
Method: Solubility Test Procedure II:
as §2, §3
Setting [6] is: pH 4, aqueous buffer, Thermodynamic solubility (mg/mL) pH 4.0, sodium acetate buffer pH 4.0, 24 h room temperature, test compound concentration 1 mg/mL.

Values after ≈ are worked out from the molar mass of the structure shown. Where a name gives a salt, the structure may show the parent alone. Read-outs that look alike come from different tables or passages of the source. Where only a bound is given, the exact number is not on record here.

With `C[C@]12CC[C@@H]3c4ccc(OC(=O)CN5CCOCC5)cc4C[C@@H](CCCCCCCCC[S+]([O-])CCCC(F)(F)C(F)(F)F)[C@H]3[C@@H]1CC[C@@H]2O` (stereo partly drawn) [Example 10, (7R,8R,9S,13S,14S,17S)-17-hydroxy-13-methyl-7-(9-((4,4,5,5,5-pentafluoropentyl)sulfinyl)nonyl)-7,8,9,11,12,13,14,15,16,17-decahydro-6H-cyclopenta[a]phenanthren-3-yl 2-morpholinoacetate], the “Increase in solubility compare to fulvestrant (Fold)” value (from here on “Increase … (Fold)”) in series [1] was found to be 32 Fold. Besides, in “physchem [2]”, the solubility at 4 h was found to be 0.2 µM (≈ 0.147 µg/mL). With `C[C@]12CC[C@@H]3c4ccc(OC(=O)c5ccccc5O)cc4C[C@@H](CCCCCCCCC[S+]([O-])CCCC(F)(F)C(F)(F)F)[C@H]3[C@@H]1CC[C@@H]2O` (stereo partly drawn) [Example 6, (7R,8R,9S,13S,14S,17S)-17-hydroxy-13-methyl-7-(9-((4,4,5,5,5-pentafluoropentyl)sulfinyl)nonyl)-7,8,9,11,12,13,14,15,16,17-decahydro-6H-cyclopenta[a]phenanthren-3-yl 2-hydroxybenzoate], in series [3], the “Increase … (Fold)” value was 562 Fold and the solubility at 4 h came to 2.7 µM (≈ 1.96 µg/mL). The compound `CN1CCC(CC(=O)Oc2ccc3c(c2)C[C@@H](CCCCCCCCC[S+]([O-])CCCC(F)(F)C(F)(F)F)[C@@H]2[C@@H]3CC[C@]3(C)[C@@H](O)CC[C@@H]23)CC1` (stereo partly drawn) [Example 15, (7R,8R,9S,13S,14S,17S)-17-hydroxy-13-methyl-7-(9-((4,4,5,5,5-pentafluoropentyl)sulfinyl)nonyl)-7,8,9,11,12,13,14,15,16,17-decahydro-6H-cyclopenta[a]phenanthren-3-yl 2-(1-methylpiperidin-4-yl)acetate] displayed a thermodynamic solubility at 24 h in the series “physchem [4]” (pH 4, aqueous buffer) of 630 µg/mL (≈ 845 µM).

Regarding `C[C@]12CC[C@@H]3c4ccc(OC(=O)CN5CCCC5)cc4C[C@@H](CCCCCCCCC[S+]([O-])CCCC(F)(F)C(F)(F)F)[C@H]3[C@@H]1CC[C@@H]2O` (stereo partly drawn) [Example 8, (7R,8R,9S,13S,14S,17S)-17-hydroxy-13-methyl-7-(9-((4,4,5,5,5-pentafluoropentyl)sulfinyl)nonyl)-7,8,9,11,12,13,14,15,16,17-decahydro-6H-cyclopenta[a]phenanthren-3-yl 2-(pyrrolidin-1-yl)acetate], in series [1], the “Increase … (Fold)” value worked out at 3500 Fold. In “physchem [2]”, the concentration in solution (solubility at 4 h) came to 17.1 µM (≈ 12.3 µg/mL).

Take `CN1CCCN(C(=O)Oc2ccc3c(c2)C[C@@H](CCCCCCCCC[S+]([O-])CCCC(F)(F)C(F)(F)F)[C@@H]2[C@@H]3CC[C@]3(C)[C@@H](O)CC[C@@H]23)CC1` (stereo partly drawn) [Example 19, (7R,8R,9S,13S,14S,17S)-17-hydroxy-13-methyl-7-(9-((4,4,5,5,5-pentafluoropentyl)sulfinyl)nonyl)-7,8,9,11,12,13,14,15,16,17-decahydro-6H-cyclopenta[a]phenanthren-3-yl 4-methyl-1,4-diazepane-1-carboxylate]: in “physchem [4]” (pH 4, aqueous buffer, Thermodynamic solubility (mg/mL) pH 4.0, sodium acetate buffer pH 4.0, 24 h room temperature, test compound concentration 2 mg/mL), the thermodynamic solubility at 24 h amounted to 1050 µg/mL (≈ 1410 µM). In turn, `CN1CCN(C(=O)Oc2ccc3c(c2)C[C@@H](CCCCCCCCC[S+]([O-])CCCC(F)(F)C(F)(F)F)[C@@H]2[C@@H]3CC[C@]3(C)[C@@H](O)CC[C@@H]23)CC1` (stereo partly drawn) [Example 4, (7R,8R,9S,13S,14S,17S)-17-hydroxy-13-methyl-7-(9-((4,4,5,5,5-pentafluoropentyl)sulfinyl)nonyl)-7,8,9,11,12,13,14,15,16,17-decahydro-6H-cyclopenta[a]phenanthren-3-yl 4-methylpiperazine-1-carboxylate] showed a thermodynamic solubility at 24 h in “physchem [4]” (setting [6]) of 790 µg/mL (≈ 1080 µM). For the same compound, in series [3], the “Increase … (Fold)” value is listed as 97 Fold and the solubility at 4 h was found to be 0.5 µM (≈ 0.366 µg/mL). In the case of `CC(C)[C@H](NC(=O)Oc1ccc2c(c1)C[C@@H](CCCCCCCCC[S+]([O-])CCCC(F)(F)C(F)(F)F)[C@@H]1C2CC[C@]2(C)[C@@H](O)CC[C@@H]12)C(=O)O` (stereo partly drawn) [Example 45, (2S)-2-(((7R,8R,13S,14S,17S)-17-hydroxy-13-methyl-7-(9-(4,4,5,5,5-pentafluoropentylsulfinyl)nonyl)-7,8,9,11,12,13,14,15,16,17-decahydro-6H-cyclopenta[a]phenanthren-3-yloxy)carbonylamino)-3-methylbutanoic acid], in “physchem [4]” (pH 7.4, aqueous buffer), the solubility (thermodynamic) was found to be 1250 µg/mL (≈ 1670 µM). As for `C[C@]12CC[C@@H]3c4ccc(OP(=O)(O)O)cc4C[C@@H](CCCCCCCCC[S+]([O-])CCCC(F)(F)C(F)(F)F)[C@H]3[C@@H]1CC[C@@H]2O` (stereo partly drawn) [Example 21, (7R,8R,9S,13S,14S,17S)-17-hydroxy-13-methyl-7-(9-((4,4,5,5,5-pentafluoropentyl)sulfinyl)nonyl)-7,8,9,11,12,13,14,15,16,17-decahydro-6H-cyclopenta[a]phenanthren-3-yl dihydrogen phosphate disodium], the solubility (thermodynamic) at 24 h in the series “physchem [4]” (pH 7.4, aqueous buffer, Thermodynamic solubility (mg/mL) pH 7.4, PBS pH 7.4, 24 h room temperature, test compound concentration 5 mg/mL) is above 5000 µg/mL. Regarding `C[C@]12CCC3c4ccc(OCOP(=O)(O)O)cc4C[C@@H](CCCCCCCCC[S+]([O-])CCCC(F)(F)C(F)(F)F)[C@H]3[C@@H]1CC[C@@H]2O` (stereo partly drawn) [Example 44, ((7R,8R,13S,14S,17S)-17-hydroxy-13-methyl-7-(9-(4,4,5,5,5-pentafluoropentylsulfinyl)nonyl)-7,8,9,11,12,13,14,15,16,17-decahydro-6H-cyclopenta[a]phenanthren-3-yloxy)methyl dihydrogen phosphate], the thermodynamic solubility at 24 h is above 1000 µg/mL in “physchem [4]” (pH 4, aqueous buffer) and above 15000 µg/mL in “physchem [4]” (pH 7.4, aqueous buffer). `C[C@]12CC[C@@H]3c4ccc(OC(=O)N5CCC(N6CCCCC6)CC5)cc4C[C@@H](CCCCCCCCC[S+]([O-])CCCC(F)(F)C(F)(F)F)[C@H]3[C@@H]1CC[C@@H]2O` (stereo partly drawn) [Example 9, (7R,8R,9S,13S,14S,17S)-17-hydroxy-13-methyl-7-(9-((4,4,5,5,5-pentafluoropentyl)sulfinyl)nonyl)-7,8,9,11,12,13,14,15,16,17-decahydro-6H-cyclopenta[a]phenanthren-3-yl[1,4′-bipiperidine]-1′-carboxylate]: the thermodynamic solubility at 24 h in “physchem [4]” (setting [6]) worked out at 700 µg/mL (≈ 874 µM). Also, in series [3], the “Increase … (Fold)” value stood at 22 Fold and the solubility at 4 h stood at 0.1 µM (≈ 0.0801 µg/mL).

For the compound `CN(C)CC(=O)Oc1ccc2c(c1)C[C@@H](CCCCCCCCC[S+]([O-])CCCC(F)(F)C(F)(F)F)[C@@H]1[C@@H]2CC[C@]2(C)[C@@H](O)CC[C@@H]12` (stereo partly drawn) [Example 1, (7R,8R,9S,13S,14S,17S)-17-hydroxy-13-methyl-7-(9-((4,4,5,5,5-pentafluoropentyl)sulfinyl)nonyl)-7,8,9,11,12,13,14,15,16,17-decahydro-6H-cyclopenta[a]phenanthren-3-yl dimethylglycinate], the “Increase … (Fold)” value in series [1] is 8 Fold. Moreover, the concentration in solution in “physchem [2]” (solubility at 4 h) was 0.04 µM (≈ 0.0277 µg/mL). As for `C[C@]12CC[C@@H]3c4ccc(OC(=O)CN5CCCCC5)cc4C[C@@H](CCCCCCCCC[S+]([O-])CCCC(F)(F)C(F)(F)F)[C@H]3[C@@H]1CC[C@@H]2O` (stereo partly drawn) [Example 3, (7R,8R,9S,13S,14S,17S)-17-hydroxy-13-methyl-7-(9-((4,4,5,5,5-pentafluoropentyl)sulfinyl)nonyl)-7,8,9,11,12,13,14,15,16,17-decahydro-6H-cyclopenta[a]phenanthren-3-yl 2-(piperidin-1-yl)acetate hydrochloride], in series [3], the “Increase … (Fold)” value came out at 669 Fold and the solubility at 4 h stood at 3.3 µM. Turning to `C[C@]12CC[C@@H]3c4ccc(OC(=O)CCC(=O)O)cc4C[C@@H](CCCCCCCCC[S+]([O-])CCCC(F)(F)C(F)(F)F)[C@H]3[C@@H]1CC[C@@H]2O` (stereo partly drawn) [Example 5, 4-(((7R,8R,9S,13S,14S,17S)-17-hydroxy-13-methyl-7-(9-((4,4,5,5,5-pentafluoropentyl)sulfinyl)nonyl)-7,8,9,11,12,13,14,15,16,17-decahydro-6H-cyclopenta[a]phenanthren-3-yl)oxy)-4-oxobutanoic acid], in series [1], the “Increase … (Fold)” value was 295 Fold. In “physchem [2]”, this compound came in with a solubility at 4 h of 1.4 µM (≈ 0.99 µg/mL). As for `CCOP(=O)(OCC)Oc1ccc2c(c1)C[C@@H](CCCCCCCCC[S+]([O-])CCCC(F)(F)C(F)(F)F)[C@@H]1[C@@H]2CC[C@]2(C)[C@@H](O)CC[C@@H]12` (stereo partly drawn) [Example 7, diethyl ((7R,8R,9S,13S,14S,17S)-17-hydroxy-13-methyl-7-(9-((4,4,5,5,5-pentafluoropentyl)sulfinyl)nonyl)-7,8,9,11,12,13,14,15,16,17-decahydro-6H-cyclopenta[a]phenanthren-3-yl) phosphate], in series [3], the “Increase … (Fold)” value is 35 Fold and the solubility at 4 h stood at 0.2 µM.

On to `C[C@]12CC[C@@H]3c4ccc(OC(=O)N5CCC(N6CCCCC6)CC5)cc4C[C@@H](CCCCCCCCC[S+]([O-])CCCC(F)(F)C(F)(F)F)[C@H]3[C@@H]1CC[C@@H]2O` (stereo partly drawn) [Example 29, (7R,8R,9S,13S,14S,17S)-17-hydroxy-13-methyl-7-(9-((4,4,5,5,5-pentafluoropentyl)sulfinyl)nonyl)-7,8,9,11,12,13,14,15,16,17-decahydro-6H-cyclopenta[a]phenanthren-3-yl [1,4′-bipiperidine]-1′-carboxylate hydrochloride], for which, in series [5], the “Thermodynamic solubility (mg/mL) pH 4.0” value is recorded as 0.75 mg/mL. For `C[C@]12CC[C@@H]3c4ccc(OP(=O)(O)O)cc4C[C@@H](CCCCCCCCC[S+]([O-])CCCC(F)(F)C(F)(F)F)[C@H]3[C@@H]1CC[C@@H]2O` (stereo partly drawn) [Example 20, (7R,8R,9S,13S,14S,17S)-17-hydroxy-13-methyl-7-(9-((4,4,5,5,5-pentafluoropentyl)sulfinyl)nonyl)-7,8,9,11,12,13,14,15,16,17-decahydro-6H-cyclopenta[a]phenanthren-3-yl dihydrogen phosphate], the solubility (thermodynamic) in “physchem [4]” (pH 4, aqueous buffer) came out at 740 µg/mL; in the series “physchem [4]” (pH 7.4, aqueous buffer), 1220 µg/mL.

(Values after patent US20210253626A1, “PRODRUGS OF FULVESTRANT” (KASHIV BIOSCIENCES, LLC, priority 2018, published 2021).)
